Laboratory results from ChEMBL document CHEMBL1201862, “PubChem BioAssay data set” (2004).
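Five concentrations, 48 hours, 96-well plates. GI50 = concentration required for 50% inhibition of growth.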 Active and inactive are the calls of the source. No stated cut-off is given here; in the data, active = GI50 up to about 1.1 µM and inactive = higher.

Legend:
Assay in all cases: growth of human tumour cells (NCI), 48 h
[1] = test system: SF-539
[2] = test system: SN12C
[3] = test system: COLO 205
[4] = test system: BT-549
[5] = test system: NCI/ADR-RES
[6] = test system: HCT-116
[7] = test system: MDA-MB-435
[8] = test system: UACC-257
[9] = test system: OVCAR-8
[10] = test system: EKVX
[11] = test system: SK-MEL-2
[12] = test system: T47D
[13] = test system: SW-620
[14] = test system: DU-145
[15] = test system: SK-OV-3
[16] = test system: OVCAR-5
[17] = test system: K562
[18] = test system: M14
[19] = test system: SK-MEL-5
[20] = test system: SR
[21] = test system: HCC 2998
[22] = test system: HL-60
[23] = test system: MDA-N
[24] = test system: SF-295
[25] = test system: NCI-H460
[26] = test system: NCI-H522
[27] = test system: CCRF-CEM
[28] = test system: OVCAR-3
[29] = test system: ACHN
[30] = test system: U-251
[31] = test system: OVCAR-4
[32] = test system: NCI-H226
[33] = test system: SNB-19
[34] = test system: SF-268
[35] = test system: A498
[36] = test system: UACC-62
[37] = test system: 786-0
[38] = test system: LOX IMVI
[39] = test system: HT-29
[40] = test system: RPMI-8226
[41] = test system: HOP-92
[42] = test system: HOP-62
[43] = test system: RXF 393
[44] = test system: NCI-H23
[45] = test system: Hs-578T
[46] = test system: CAKI-1
[47] = test system: MDA-MB-231
[48] = test system: UO-31
[49] = test system: MCF7
[50] = test system: KM12
[51] = test system: MOLT-4
[52] = test system: Malme-3M
[53] = test system: A549
[54] = test system: TK-10
[55] = test system: IGROV-1
[56] = test system: HCT-15
[57] = test system: PC-3
[58] = test system: SK-MEL-28

SMILES: Nc1nc2c(C(=O)NCc3cccs3)nnn2c2cccc(Cl)c12
- GI50 [1]: 77.3 µM (inactive)
- GI50 [2]: > 100 µM (inactive)
- GI50 [3]: > 100 µM (inactive)
- GI50 [4]: > 100 µM (inactive)
- GI50 [5]: > 100 µM (inactive)
- GI50 [6]: > 100 µM (inactive)
- GI50 [7]: > 100 µM (inactive)
- GI50 [8]: > 100 µM (inactive)
- GI50 [9]: 84.7 µM (inactive)
- GI50 [10]: 57.8 µM (inactive)
- GI50 [11]: > 100 µM (inactive)
- GI50 [12]: 19.5 µM (inactive)
- GI50 [13]: 91.2 µM (inactive)
- GI50 [14]: > 100 µM (inactive)
- GI50 [15]: > 100 µM (inactive)
- GI50 [16]: 45.3 µM (inactive)
- GI50 [17]: > 100 µM (inactive)
- GI50 [18]: > 100 µM (inactive)
- GI50 [19]: 92.3 µM (inactive)
- GI50 [20]: 52.2 µM (inactive)
- GI50 [21]: 30.5 µM (inactive)
- GI50 [22]: > 100 µM (inactive)
- GI50 [23]: > 100 µM (inactive)
- GI50 [24]: > 100 µM (inactive)
- GI50 [25]: > 100 µM (inactive)
- GI50 [26]: > 100 µM (inactive)
- GI50 [27]: 22.3 µM (inactive)
- GI50 [28]: > 100 µM (inactive)
- GI50 [29]: > 100 µM (inactive)
- GI50 [30]: > 100 µM (inactive)
- GI50 [31]: > 100 µM (inactive)
- GI50 [32]: 92 µM (inactive)
- GI50 [33]: > 100 µM (inactive)
- GI50 [34]: > 100 µM (inactive)
- GI50 [35]: > 100 µM (inactive)
- GI50 [36]: > 100 µM (inactive)
- GI50 [37]: > 100 µM (inactive)
- GI50 [38]: > 100 µM (inactive)
- GI50 [39]: > 100 µM (inactive)
- GI50 [40]: 39.7 µM (inactive)
- GI50 [41]: 79.3 µM (inactive)
- GI50 [42]: > 100 µM (inactive)
- GI50 [43]: 59.4 µM (inactive)
- GI50 [44]: 87.3 µM (inactive)
- GI50 [45]: > 100 µM (inactive)
- GI50 [46]: > 100 µM (inactive)
- GI50 [47]: 60.1 µM (inactive)
- GI50 [48]: 87.5 µM (inactive)
- GI50 [49]: 53.8 µM (inactive)
- GI50 [50]: > 100 µM (inactive)
- GI50 [51]: 89.5 µM (inactive)
- GI50 [52]: > 100 µM (inactive)
- GI50 [53]: > 100 µM (inactive)
- GI50 [54]: > 100 µM (inactive)
- GI50 [55]: > 100 µM (inactive)
- GI50 [56]: > 100 µM
- GI50 [57]: 54.5 µM (inactive)
- GI50 [58]: 92.3 µM (inactive)

SMILES: COc1ccc(-c2c(C#N)c(N)nc(Sc3ccccc3N)c2C#N)cc1
- GI50 [1]: 12.1 µM (inactive)
- GI50 [2]: 9.66 µM (inactive)
- GI50 [3]: > 100 µM (inactive)
- GI50 [4]: 9.35 µM (inactive)
- GI50 [5]: 7.69 µM (inactive)
- GI50 [6]: 10.7 µM (inactive)
- GI50 [7]: > 83 µM (inactive)
- GI50 [8]: 39.3 µM (inactive)
- GI50 [9]: 8.11 µM (inactive)
- GI50 [10]: 15.7 µM (inactive)
- GI50 [11]: 9.57 µM (inactive)
- GI50 [12]: 2.82 µM (inactive)
- GI50 [13]: > 90.6 µM (inactive)
- GI50 [14]: > 47.6 µM (inactive)
- GI50 [15]: 9.53 µM (inactive)
- GI50 [16]: > 53.5 µM (inactive)
- GI50 [17]: 32.3 µM (inactive)
- GI50 [18]: 27.9 µM (inactive)
- GI50 [19]: 28.6 µM (inactive)
- GI50 [20]: 43.7 µM (inactive)
- GI50 [21]: > 43.1 µM (inactive)
- GI50 [22]: > 100 µM (inactive)
- GI50 [23]: > 100 µM (inactive)
- GI50 [24]: 10.2 µM (inactive)
- GI50 [25]: 19 µM (inactive)
- GI50 [26]: 10 µM (inactive)
- GI50 [27]: > 100 µM (inactive)
- GI50 [28]: 22.1 µM (inactive)
- GI50 [29]: 13.1 µM (inactive)
- GI50 [30]: 13.4 µM (inactive)
- GI50 [31]: 13.6 µM (inactive)
- GI50 [32]: 52.8 µM (inactive)
- GI50 [33]: 16.1 µM (inactive)
- GI50 [34]: 5.77 µM (inactive)
- GI50 [35]: 4.73 µM (inactive)
- GI50 [36]: 9.46 µM (inactive)
- GI50 [37]: 4.82 µM (inactive)
- GI50 [38]: 16.8 µM (inactive)
- GI50 [39]: 7.69 µM (inactive)
- GI50 [40]: > 75.5 µM (inactive)
- GI50 [41]: 4.79 µM (inactive)
- GI50 [42]: 6.1 µM (inactive)
- GI50 [43]: 6.46 µM (inactive)
- GI50 [44]: > 48.4 µM (inactive)
- GI50 [45]: 6.05 µM (inactive)
- GI50 [46]: 8.36 µM (inactive)
- GI50 [47]: 11.7 µM (inactive)
- GI50 [48]: 13.3 µM (inactive)
- GI50 [49]: 14.6 µM (inactive)
- GI50 [50]: 44.9 µM (inactive)
- GI50 [51]: > 71 µM (inactive)
- GI50 [52]: 10.2 µM (inactive)
- GI50 [53]: 17.6 µM (inactive)
- GI50 [54]: 10.9 µM (inactive)
- GI50 [55]: 10.8 µM (inactive)
- GI50 [56]: 24 µM
- GI50 [57]: 12.9 µM (inactive)
- GI50 [58]: > 50.9 µM (inactive)
